Consider five molecules from PubChem BioAssay AID1259407 (Chemical Carcinogenesis Research Information System (CCRIS), 2018).

The source made the active and inactive calls. How the calls were made is not given here.

For the data set, the system named is CCRIS mutagenicity, Ames/micronucleus/aberration tests. The data set can be described thus: CCRIS mutagenicity studies.
[1] abbreviates: Test System: AMES SALMONELLA TYPHIMURIUM, Strain/Indicator: TA98, Metabolic Activation: NONE, Method: PREINCUBATION
The mark [2] stands for this setting: Test System: AMES SALMONELLA TYPHIMURIUM, Strain/Indicator: TA100, Metabolic Activation: NONE, Method: PREINCUBATION

Regarding `CCCCCNC(=O)/C=C/c1ccc([N+](=O)[O-])o1`, the mutagenic call under setting [1] was “active; positive”.
Turning to `Nc1cccc2c1ccc1ccccc12`, the mutagenic call by setting is: (Test System: AMES SALMONELLA TYPHIMURIUM, Strain/Indicator: TA98, Metabolic Activation: RAT, LIVER, S-9, AROCLOR 1254 (2 OR 4%), Method: STANDARD PLATE) “active; positive”; (Test System: AMES SALMONELLA TYPHIMURIUM, Strain/Indicator: TA100, Metabolic Activation: RAT, LIVER, S-9, AROCLOR 1254 (2%), Method: STANDARD PLATE) “active; positive”; (Test System: AMES SALMONELLA TYPHIMURIUM, Strain/Indicator: TA1535, Metabolic Activation: RAT, LIVER, S-9, AROCLOR 1254 (2%), Method: STANDARD PLATE) “inactive; negative”; (Test System: AMES SALMONELLA TYPHIMURIUM, Strain/Indicator: TA1537, Metabolic Activation: RAT, LIVER, S-9, AROCLOR 1254 (2%), Method: STANDARD PLATE) “active; positive”.
For `O=[N+]([O-])c1ccc2c(c1)Oc1ccc([N+](=O)[O-])cc1O2`, the mutagenic call (Test System: AMES SALMONELLA TYPHIMURIUM, Strain/Indicator: TA98(1,8-DNP6), Metabolic Activation: NONE, Method: PREINCUBATION) was “active; positive”; the mutagenic call (Test System: AMES SALMONELLA TYPHIMURIUM, Strain/Indicator: TA98(1,8-DNP6), Metabolic Activation: NONE, Method: SUSPENSION) is “active; positive”; the mutagenic call (Test System: AMES SALMONELLA TYPHIMURIUM, Strain/Indicator: TA98(1,8-DNP6), Metabolic Activation: RAT, LIVER, S-9, PCB (5%), Method: PREINCUBATION) was “active; positive”; the mutagenic call (Test System: AMES SALMONELLA TYPHIMURIUM, Strain/Indicator: TA98(NR), Metabolic Activation: NONE, Method: PREINCUBATION) is “inactive; negative”; the mutagenic call (Test System: AMES SALMONELLA TYPHIMURIUM, Strain/Indicator: TA98(NR), Metabolic Activation: NONE, Method: SUSPENSION) is “active; positive”; the mutagenic call (Test System: AMES SALMONELLA TYPHIMURIUM, Strain/Indicator: TA98(NR), Metabolic Activation: RAT, LIVER, S-9 (15%), Method: PREINCUBATION) is “active; positive”. For the same molecule, the mutagenic call is “active; positive” (Test System: AMES SALMONELLA TYPHIMURIUM, Strain/Indicator: TA98(NR), Metabolic Activation: RAT, LIVER, S-9, 3-METHYLCHOLANTHRENE (15%), Method: PREINCUBATION); “active; positive” (Test System: AMES SALMONELLA TYPHIMURIUM, Strain/Indicator: TA98(NR), Metabolic Activation: RAT, LIVER, S-9, BETA-NAPHTHOFLAVONE (15%), Method: PREINCUBATION); “active; positive” (Test System: AMES SALMONELLA TYPHIMURIUM, Strain/Indicator: TA98(NR), Metabolic Activation: RAT, LIVER, S-9, PCB (5 OR 15%), Method: PREINCUBATION); “active; positive” (Test System: AMES SALMONELLA TYPHIMURIUM, Strain/Indicator: TA98(NR), Metabolic Activation: RAT, LIVER, S-9, PHENOBARBITAL (15%), Method: PREINCUBATION); “active; positive” under setting [1]; “active; positive” (Test System: AMES SALMONELLA TYPHIMURIUM, Strain/Indicator: TA98, Metabolic Activation: NONE, Method: SUSPENSION). Moreover, the mutagenic call is “active; positive” (Test System: AMES SALMONELLA TYPHIMURIUM, Strain/Indicator: TA98, Metabolic Activation: RAT, LIVER, S-9, PCB (5%), Method: PREINCUBATION); “active; positive” (Test System: AMES SALMONELLA TYPHIMURIUM, Strain/Indicator: TA98, Metabolic Activation: RAT, LIVER, S-9, PCB, Method: SUSPENSION); “inactive; negative” under setting [2]; “inactive; negative” (Test System: AMES SALMONELLA TYPHIMURIUM, Strain/Indicator: TA100, Metabolic Activation: NONE, Method: SUSPENSION); “inactive; negative” (Test System: AMES SALMONELLA TYPHIMURIUM, Strain/Indicator: TA100, Metabolic Activation: RAT, LIVER, S-9, PCB, Method: PREINCUBATION); “inactive; negative” (Test System: AMES SALMONELLA TYPHIMURIUM, Strain/Indicator: TA100, Metabolic Activation: RAT, LIVER, S-9, PCB, Method: SUSPENSION).
Take `OCC(O)CO`: the mutagenic call runs as follows: (End Point: IN VITRO CHROMOSOMAL ABERRATIONS, Test System: CHO-WBL CELLS, Metabolic Activation: NONE) “inactive; negative”; (Test System: AMES SALMONELLA TYPHIMURIUM, Strain/Indicator: TA97, Metabolic Activation: NONE, Method: PREINCUBATION) “inactive; negative”; (Test System: AMES SALMONELLA TYPHIMURIUM, Strain/Indicator: TA97, Metabolic Activation: RAT, LIVER, S-9, AROCLOR 1254, Method: PREINCUBATION) “inactive; negative”; under setting [1], “inactive; negative”; (Test System: AMES SALMONELLA TYPHIMURIUM, Strain/Indicator: TA98, Metabolic Activation: RAT, LIVER, S-9, KC 500, Method: PREINCUBATION) “inactive; negative”; under setting [2], “inactive; negative”. Besides, the mutagenic call (Test System: AMES SALMONELLA TYPHIMURIUM, Strain/Indicator: TA100, Metabolic Activation: RAT, LIVER, S-9, KC 500, Method: PREINCUBATION) is “inactive; negative”; the mutagenic call (Test System: AMES SALMONELLA TYPHIMURIUM, Strain/Indicator: TA102, Metabolic Activation: NONE, Method: PREINCUBATION) was “inactive; negative”; the mutagenic call (Test System: AMES SALMONELLA TYPHIMURIUM, Strain/Indicator: TA102, Metabolic Activation: RAT, LIVER, S-9, AROCLOR 1254, Method: PREINCUBATION) was “inactive; negative”; the mutagenic call (Test System: AMES SALMONELLA TYPHIMURIUM, Strain/Indicator: TA1535, Metabolic Activation: NONE, Method: PREINCUBATION) is “inactive; negative”; the mutagenic call (Test System: AMES SALMONELLA TYPHIMURIUM, Strain/Indicator: TA1535, Metabolic Activation: RAT, LIVER, S-9, KC 500, Method: PREINCUBATION) was “inactive; negative”; the mutagenic call (Test System: AMES SALMONELLA TYPHIMURIUM, Strain/Indicator: TA1537, Metabolic Activation: NONE, Method: PREINCUBATION) was “inactive; negative”. Further, the mutagenic call reads like this: (Test System: AMES SALMONELLA TYPHIMURIUM, Strain/Indicator: TA1537, Metabolic Activation: RAT, LIVER, S-9, KC 500, Method: PREINCUBATION) “inactive; negative”; (Test System: AMES SALMONELLA TYPHIMURIUM, Strain/Indicator: TA1538, Metabolic Activation: NONE, Method: PREINCUBATION) “inactive; negative”; (Test System: AMES SALMONELLA TYPHIMURIUM, Strain/Indicator: TA1538, Metabolic Activation: RAT, LIVER, S-9, KC 500, Method: PREINCUBATION) “inactive; negative”; (Test System: E. COLI, Strain/Indicator: WP2 UVRA, Metabolic Activation: NONE, Method: PREINCUBATION) “inactive; negative”; (Test System: E. COLI, Strain/Indicator: WP2 UVRA, Metabolic Activation: RAT, LIVER, S-9, KC 500, Method: PREINCUBATION) “inactive; negative”.
In the case of `Nc1nc2ccc(O)cc2[nH]1`, the mutagenic call reads like this: (Test System: AMES SALMONELLA TYPHIMURIUM, Strain/Indicator: TA98, Metabolic Activation: RAT, LIVER, S-9, AROCLOR 1254, Method: PREINCUBATION) “active; positive”; (Test System: AMES SALMONELLA TYPHIMURIUM, Strain/Indicator: TA100, Metabolic Activation: RAT, LIVER, S-9, AROCLOR 1254, Method: PREINCUBATION) “inactive; negative”.
